Series [1] relates to BaF3 EML-4-ALK-L1196M cell line. Briefly: Cell anti-proliferation test 4 (CCK-8), BaF3 EML-4-ALK-L1196M. The series is classed as cell-based. As to conditions: Ba/F3 EML4-ALK-L1196M, BaF3 EML-4-ALK-L1196M cells, CCK-8, 72 hours. The protocol: BaF3 EML-4-ALK-L1196M cell line, brand: KYinno, article number: KC-0102
Cell Counting Kit-8 (CCK-8), brand: Targetmol, article number: C0005
10 μL of the compound diluted in gradient was added to the cell plate to give final concentrations of the compounds as 500, 166.67, 55.56, 18.52, 6.17, 2.06, 0.69, 0.23 and 0.08 nM. • d.

A short description of series [2]: Pharmacokinetic test in SD rats. The series is classed as in vivo. As to conditions: male, rat, plasma, PO, 20 mg/kg. The protocol:
Six SD rats were taken, which were all male, and about 8-9 weeks old, weighing about 430 g/rat, and fasting but allowed to drink water for 18 hours.
The rats were divided into two groups, wherein the rats in group 1 were dosed with compound 2 and the rats in group 2 were dosed with control compound 4, both orally and intragastrically in a dose of 20 mg/kg. A lavage fluid was prepared using 70 mM citric acid buffer (pH 3.0) at an administration volume of 5 mL/kg.
0.6 mL of blood (EDTA-2K anti-coagulated) was collected from rat orbits at 0.5, 1.5, 3, 4.5, 8, 12, 24, 36, 48 and 72 hours after the administration respectively. The plasma was separated and stored at −70° C., and the plasma samples were analyzed using liquid chromatography tandem mass spectrometry (LC-MS/MS). The plasma concentration-time data of the individual rates was analyzed using a non-compartmental model of DAS3.3.1 software and pharmacokinetic parameters of the test compounds were calculated.

Series [3] has as its system NCI-H1975 EGFR DTC(C797S/T790M/Del19) cells. Briefly: In vivo pharmacodynamic study, subcutaneously implanted tumor NCI-H1975 EGFR DTC(C797S/T790M/Del19) (two-sided model). Also on record: species or system BALB/c nude mouse. The protocol:
Passages were treated twice a week. When the cell number reached requirement, the cells were collected, counted and inoculated.
Administration mode and frequency: oral gavage was carried out with an administration volume of 10 mL/kg, and the model group was administered with the same volume of solvent. The administration was once per day and continuously carried out for 16 days.
General conditions such as spirit, activity, food intake and the like of the mice were observed every day, and the weight was measured thrice every week; the short diameter (a) and the long diameter (b) of each mouse tumor were measured thrice a week with a vernier caliper, and the tumor volume was calculated according to the formula (a^2×b)/2. The Relative Tumor Volume (RTV) was calculated from the measured tumor volume, wherein RTV=Vt/V0, wherein V0 was the tumor volume at random grouping (i.e., d0) and Vt was the tumor volume at each measurement (i.e., dn). The relative tumor proliferation rate of the evaluation index of the anti-tumor activity was calculated according to the following formula: relative tumor proliferation rate T/C (%): […]
Note: TRTV: treatment group RTV; CRTV model control group RTV.

Another series concerns the target EGFR-WT (Homo sapiens (Human), UniProt P00533). Kind of series: Enzymatic activity test (ADP-Glo) EGFR-WT. The series is classed as biochemical. As to conditions: kinase. For orientation: In ADP-Glo the light output rises with the ADP produced.
Where [4] appears, read: 20 mg/kg oral gavage once per day.
Where [5] appears, read: 40 mg/kg oral gavage once per day.

pIC50: −log10 of the molar value. Like-named read-outs stand apart in the source and are kept apart here.

EGFR-WT, sequence (P00533 25-1210): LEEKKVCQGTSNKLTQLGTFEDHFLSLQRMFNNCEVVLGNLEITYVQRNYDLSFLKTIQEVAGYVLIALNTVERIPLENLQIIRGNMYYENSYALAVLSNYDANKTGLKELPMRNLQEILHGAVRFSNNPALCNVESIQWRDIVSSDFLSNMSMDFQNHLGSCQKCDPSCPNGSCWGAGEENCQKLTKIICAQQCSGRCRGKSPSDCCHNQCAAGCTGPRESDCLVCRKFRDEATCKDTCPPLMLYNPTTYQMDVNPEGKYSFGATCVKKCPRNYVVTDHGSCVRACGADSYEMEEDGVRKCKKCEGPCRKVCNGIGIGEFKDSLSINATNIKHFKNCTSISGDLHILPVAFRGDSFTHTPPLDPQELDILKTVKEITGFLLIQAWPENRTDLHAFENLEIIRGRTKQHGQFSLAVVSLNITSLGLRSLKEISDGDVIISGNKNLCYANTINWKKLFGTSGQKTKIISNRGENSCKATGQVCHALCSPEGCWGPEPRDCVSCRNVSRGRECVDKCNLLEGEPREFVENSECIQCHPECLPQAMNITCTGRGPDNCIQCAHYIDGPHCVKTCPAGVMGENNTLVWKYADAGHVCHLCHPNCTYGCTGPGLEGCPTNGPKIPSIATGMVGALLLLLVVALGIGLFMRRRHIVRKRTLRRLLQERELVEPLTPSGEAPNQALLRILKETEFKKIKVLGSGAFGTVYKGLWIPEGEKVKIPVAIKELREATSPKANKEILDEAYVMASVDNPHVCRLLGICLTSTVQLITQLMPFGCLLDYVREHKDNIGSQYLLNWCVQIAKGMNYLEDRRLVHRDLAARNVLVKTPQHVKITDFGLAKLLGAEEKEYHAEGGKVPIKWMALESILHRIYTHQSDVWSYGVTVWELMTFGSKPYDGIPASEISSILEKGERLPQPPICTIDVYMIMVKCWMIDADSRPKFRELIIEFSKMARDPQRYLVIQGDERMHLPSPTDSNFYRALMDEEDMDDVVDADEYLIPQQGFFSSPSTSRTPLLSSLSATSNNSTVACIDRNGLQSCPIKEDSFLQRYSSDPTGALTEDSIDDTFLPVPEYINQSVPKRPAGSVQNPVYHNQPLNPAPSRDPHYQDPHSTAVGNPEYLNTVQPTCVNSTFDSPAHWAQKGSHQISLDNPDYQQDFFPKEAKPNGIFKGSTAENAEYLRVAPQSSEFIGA

As to `COc1cc(N2CCC(N3CCN(C)CC3)CC2)c(C)cc1Nc1ncc(Br)c(Nc2ccc(C)cc2P(C)(C)=O)n1` [Compound 2], in series [1] (first test, read-out: First test IC50), the negative-log IC50 (pIC50) was 7.82. For the same molecule, in series [1] (second test, read-out: Second test IC50), the negative logarithm of the IC50 (pIC50) is 7.98. In series [2], this molecule gave an exposure AUC(0-t) of 96300 ng·h/mL and a Cmax of 2310 ng/mL. For the same molecule, in series [3] (setting [4]), the “NCI-H1975 EGFR DTC(C797S/T790M/Del19) Tumor volume Day 0” value is on record as 110 mm^3, the “NCI-H1975 EGFR DTC(C797S/T790M/Del19) T/C Day 2” value worked out at 75.84%, the “NCI-H1975 EGFR DTC(C797S/T790M/Del19) Tumor volume Day 2” value is recorded as 147 mm^3 and the “NCI-H1975 EGFR DTC(C797S/T790M/Del19) T/C Day 4” value is given as 66.68%. In series [3] (setting [4]), the “NCI-H1975 EGFR DTC(C797S/T790M/Del19) Tumor volume Day 4” value stood at 235 mm^3, the “NCI-H1975 EGFR DTC(C797S/T790M/Del19) T/C Day 6” value was 56.63%, the “NCI-H1975 EGFR DTC(C797S/T790M/Del19) Tumor volume Day 6” value is given as 321 mm^3 and the “NCI-H1975 EGFR DTC(C797S/T790M/Del19) T/C Day 9” value is 43.36%. In addition, in series [3] (setting [4]), the “NCI-H1975 EGFR DTC(C797S/T790M/Del19) Tumor volume Day 9” value worked out at 480 mm^3, the “NCI-H1975 EGFR DTC(C797S/T790M/Del19) T/C Day 11” value is listed as 40.68%, the “NCI-H1975 EGFR DTC(C797S/T790M/Del19) Tumor volume Day 11” value was determined as 583 mm^3 and the “NCI-H1975 EGFR DTC(C797S/T790M/Del19) T/C Day 13” value stood at 40.09%. For the same molecule, in series [3] (setting [4]), the “NCI-H1975 EGFR DTC(C797S/T790M/Del19) Tumor volume Day 13” value is on record as 720 mm^3, the “NCI-H1975 EGFR DTC(C797S/T790M/Del19) T/C Day 16” value came out at 37.95% and the “NCI-H1975 EGFR DTC(C797S/T790M/Del19) Tumor volume Day 16” value is 1065 mm^3. Besides, in series [3] (setting [5]), the “NCI-H1975 EGFR DTC(C797S/T790M/Del19) Tumor volume Day 0” value was 113 mm^3, the “NCI-H1975 EGFR DTC(C797S/T790M/Del19) T/C Day 2” value is reported as 67.13%, the “NCI-H1975 EGFR DTC(C797S/T790M/Del19) Tumor volume Day 2” value stood at 133 mm^3 and the “NCI-H1975 EGFR DTC(C797S/T790M/Del19) T/C Day 4” value worked out at 50.41%. For the same molecule, in series [3] (setting [5]), the “NCI-H1975 EGFR DTC(C797S/T790M/Del19) Tumor volume Day 4” value amounted to 177 mm^3, the “NCI-H1975 EGFR DTC(C797S/T790M/Del19) T/C Day 6” value stood at 39.48%, the “NCI-H1975 EGFR DTC(C797S/T790M/Del19) Tumor volume Day 6” value is recorded as 217 mm^3 and the “NCI-H1975 EGFR DTC(C797S/T790M/Del19) T/C Day 9” value came out at 24.87%. In series [3] (setting [5]), the “NCI-H1975 EGFR DTC(C797S/T790M/Del19) Tumor volume Day 9” value was found to be 269 mm^3, the “NCI-H1975 EGFR DTC(C797S/T790M/Del19) T/C Day 11” value amounted to 22.07%, the “NCI-H1975 EGFR DTC(C797S/T790M/Del19) Tumor volume Day 11” value was 308 mm^3 and the “NCI-H1975 EGFR DTC(C797S/T790M/Del19) T/C Day 13” value is listed as 18.98%. In series [3] (setting [5]), the “NCI-H1975 EGFR DTC(C797S/T790M/Del19) Tumor volume Day 13” value worked out at 327 mm^3, the “NCI-H1975 EGFR DTC(C797S/T790M/Del19) T/C Day 16” value came to 14.36% and the “NCI-H1975 EGFR DTC(C797S/T790M/Del19) Tumor volume Day 16” value is on record as 385 mm^3.

In turn, `COc1cc(N2CCC(N3CCN(C)CC3)CC2)c(Cl)cc1Nc1ncc(Br)c(Nc2ccc(C)cc2P(C)(C)=O)n1` [Compound 14] had a pIC50 on EGFR-WT of 7.18.

By pIC50 is commonly meant the IC50 on a negative log10 scale, so that one unit is a factor of ten. As usually defined, the AUC(0-t) is exposure summed from dosing to a finite time, without extrapolation to infinity. Higher therefore signals more exposure. By Cmax is commonly meant the peak of the concentration-time curve.

(Values after patent US20230322822A1, “ARYL PHOSPHOROUS OXIDE COMPOUNDS AND USE THEREOF” (Chengdu Di'ao Jiuhong Pharmaceutical Factory, priority 2020, published 2023).)
